# Activity calls are given as the source filed them.
# Key:
# [1] = test system: HEK293; test: optical interference in Abeta FP readout, dose response, artefact control for IDE activator project, biochemical, fluorescence polarization (AID 588442); format: functional, cell-based; conditions: Homo sapiens
# [2] = biological target: T1, Insulin-degrading enzyme (Homo sapiens, UniProt P14735); test: cellular IDE activation of Abeta substrate cleavage – fluorescence polarization, HEK cells, dose response (AID 588439); format: functional, cell-based
# T1 sequence (P14735 whole entry): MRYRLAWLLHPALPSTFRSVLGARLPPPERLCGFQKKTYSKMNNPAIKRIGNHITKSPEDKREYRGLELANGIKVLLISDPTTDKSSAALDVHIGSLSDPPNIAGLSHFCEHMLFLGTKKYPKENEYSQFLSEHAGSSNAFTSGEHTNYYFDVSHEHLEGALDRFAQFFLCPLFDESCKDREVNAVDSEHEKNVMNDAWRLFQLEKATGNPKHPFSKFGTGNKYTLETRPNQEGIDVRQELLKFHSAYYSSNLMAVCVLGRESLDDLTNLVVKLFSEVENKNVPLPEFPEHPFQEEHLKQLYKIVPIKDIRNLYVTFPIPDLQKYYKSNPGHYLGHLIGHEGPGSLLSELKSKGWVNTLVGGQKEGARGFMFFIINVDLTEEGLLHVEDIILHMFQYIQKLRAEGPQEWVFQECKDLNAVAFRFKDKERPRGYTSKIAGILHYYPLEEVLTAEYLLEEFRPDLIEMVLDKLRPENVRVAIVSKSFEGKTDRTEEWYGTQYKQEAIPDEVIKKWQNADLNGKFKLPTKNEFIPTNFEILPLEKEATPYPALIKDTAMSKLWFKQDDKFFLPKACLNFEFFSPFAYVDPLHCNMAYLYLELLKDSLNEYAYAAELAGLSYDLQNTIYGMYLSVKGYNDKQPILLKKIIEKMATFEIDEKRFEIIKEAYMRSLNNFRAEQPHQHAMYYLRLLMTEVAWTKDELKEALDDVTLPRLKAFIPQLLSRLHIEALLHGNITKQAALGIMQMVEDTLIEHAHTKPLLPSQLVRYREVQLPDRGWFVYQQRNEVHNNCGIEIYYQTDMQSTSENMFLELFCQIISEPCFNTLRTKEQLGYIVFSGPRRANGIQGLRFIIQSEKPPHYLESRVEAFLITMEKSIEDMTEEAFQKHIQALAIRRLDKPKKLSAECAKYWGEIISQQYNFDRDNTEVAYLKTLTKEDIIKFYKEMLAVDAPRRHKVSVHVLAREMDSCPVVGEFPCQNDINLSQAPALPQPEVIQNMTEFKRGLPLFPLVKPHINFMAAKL
# [3] = biological target: T1, Insulin-degrading enzyme; test: recombinant IDE activation, cell-free – biochemical, fluorescence polarization, counter-screen for IDE activator project, dose response (AID 588681)
# [4] = test system: HEK293; test: membrane integrity loss in HEK cells – cell-based, fluorescence, cytotoxicity control for IDE activator project, dose response (AID 588440); format: functional; conditions: Homo sapiens;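 note: cytotoxicity by LDH release measuring loss of membrane integrity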
# [5] = biological target: Multidrug resistance protein CDR1 (Candida albicans, UniProt P43071); test: inhibition of Nile Red efflux via Candida CDR1 – S. cerevisiae AD1-8u, singleplex, Cherry Pick1 hits, dose response (AID 588606); format: functional
# [6] = biological target: Melanocortin receptor 4 (Homo sapiens, UniProt P32245); test: inhibitors of MC4R cAMP signaling – cell-based, TR-FRET, biased antagonists, dose response (AID 602298); format: functional;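 note: antagonist potency against agonist-stimulated cAMP production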
# [7] = cAMP pathway inhibition in counterscreen cell line – TR-FRET cAMP detection, counter-screen for MC4R biased antagonist project, dose response (AID 602305); format: functional, cell-based;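 note: U2OS cells stimulated with forskolin near its EC80 as the cAMP inducer; potency is for inhibition of forskolin-stimulated cAMP signaling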
# [8] = Luminescence Cell-Based Dose Retest to Confirm Inhibitors of Cancer Stem Cells. [Related pubchem assays (depositor defined):AID2717, AID2721]; format: functional; conditions: Homo sapiens
# [9] = biological target: Protein disulfide-isomerase (Homo sapiens, UniProt P07237); test: inhibition of PDI-driven insulin aggregation – biochemical, turbidity, absorbance, cherry-picked samples, dose response (AID 602350); format: functional
# [10] = biological target: Dual specificity tyrosine-phosphorylation-regulated kinase 1A (Rattus norvegicus, UniProt Q63470); format: biochemical, Homo sapiens
# [11] = biological target: Paired box protein Pax-8 (Homo sapiens, UniProt Q06710); test: PAX8 transcriptional activity inhibition in RMG-I – RMG-I cells, luciferase, cherry-pick, dose response (AID 687027); format: functional, cell-based;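 note: luciferase reporter driven by Pax8 target thyroperoxidase promoter measured by SteadyGlo luminescence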
# [12] = biological target: T2, Cytochrome P450 1A2 (Homo sapiens, UniProt P05177);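 note: PubChem cytochrome P450 panel assay, CYP1A2 panel member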
# T2 sequence (P05177 whole entry): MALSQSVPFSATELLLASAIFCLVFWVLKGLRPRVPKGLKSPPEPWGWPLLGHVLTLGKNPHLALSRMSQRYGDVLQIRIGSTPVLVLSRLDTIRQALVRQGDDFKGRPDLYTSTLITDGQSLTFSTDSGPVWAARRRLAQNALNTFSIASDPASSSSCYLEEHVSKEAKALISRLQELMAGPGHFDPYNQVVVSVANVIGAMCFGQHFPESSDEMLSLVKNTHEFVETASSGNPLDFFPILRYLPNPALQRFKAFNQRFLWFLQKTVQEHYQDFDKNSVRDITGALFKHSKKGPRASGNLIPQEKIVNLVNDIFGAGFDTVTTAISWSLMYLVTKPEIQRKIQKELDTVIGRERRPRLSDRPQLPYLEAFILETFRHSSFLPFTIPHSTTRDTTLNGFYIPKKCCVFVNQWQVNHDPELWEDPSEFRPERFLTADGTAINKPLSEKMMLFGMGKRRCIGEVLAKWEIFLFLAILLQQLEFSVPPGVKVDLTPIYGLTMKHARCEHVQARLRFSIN
# [13] = biological target: T3, DNA repair protein RAD52 homolog (Homo sapiens, UniProt P43351); format: functional, biochemical
# T3 sequence (P43351 whole entry): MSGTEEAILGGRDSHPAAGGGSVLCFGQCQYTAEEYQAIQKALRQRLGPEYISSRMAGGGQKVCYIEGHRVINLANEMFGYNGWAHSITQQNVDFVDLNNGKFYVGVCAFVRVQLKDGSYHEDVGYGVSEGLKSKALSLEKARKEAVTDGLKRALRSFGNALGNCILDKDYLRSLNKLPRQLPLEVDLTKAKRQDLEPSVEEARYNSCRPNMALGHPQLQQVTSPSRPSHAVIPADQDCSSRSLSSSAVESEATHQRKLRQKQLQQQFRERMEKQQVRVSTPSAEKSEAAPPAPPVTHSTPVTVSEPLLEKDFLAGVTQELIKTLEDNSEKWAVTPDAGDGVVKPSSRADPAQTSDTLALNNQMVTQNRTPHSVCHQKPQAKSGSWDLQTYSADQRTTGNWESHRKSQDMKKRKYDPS
# [14] = biological target: T4, Hexokinase HKDC1 (Homo sapiens, UniProt Q2TB90); test: inhibition of HKDC1 glucose phosphorylation – biochemical, W721R variant, dose response (AID 504729); format: functional
# T4 sequence (Q2TB90 whole entry): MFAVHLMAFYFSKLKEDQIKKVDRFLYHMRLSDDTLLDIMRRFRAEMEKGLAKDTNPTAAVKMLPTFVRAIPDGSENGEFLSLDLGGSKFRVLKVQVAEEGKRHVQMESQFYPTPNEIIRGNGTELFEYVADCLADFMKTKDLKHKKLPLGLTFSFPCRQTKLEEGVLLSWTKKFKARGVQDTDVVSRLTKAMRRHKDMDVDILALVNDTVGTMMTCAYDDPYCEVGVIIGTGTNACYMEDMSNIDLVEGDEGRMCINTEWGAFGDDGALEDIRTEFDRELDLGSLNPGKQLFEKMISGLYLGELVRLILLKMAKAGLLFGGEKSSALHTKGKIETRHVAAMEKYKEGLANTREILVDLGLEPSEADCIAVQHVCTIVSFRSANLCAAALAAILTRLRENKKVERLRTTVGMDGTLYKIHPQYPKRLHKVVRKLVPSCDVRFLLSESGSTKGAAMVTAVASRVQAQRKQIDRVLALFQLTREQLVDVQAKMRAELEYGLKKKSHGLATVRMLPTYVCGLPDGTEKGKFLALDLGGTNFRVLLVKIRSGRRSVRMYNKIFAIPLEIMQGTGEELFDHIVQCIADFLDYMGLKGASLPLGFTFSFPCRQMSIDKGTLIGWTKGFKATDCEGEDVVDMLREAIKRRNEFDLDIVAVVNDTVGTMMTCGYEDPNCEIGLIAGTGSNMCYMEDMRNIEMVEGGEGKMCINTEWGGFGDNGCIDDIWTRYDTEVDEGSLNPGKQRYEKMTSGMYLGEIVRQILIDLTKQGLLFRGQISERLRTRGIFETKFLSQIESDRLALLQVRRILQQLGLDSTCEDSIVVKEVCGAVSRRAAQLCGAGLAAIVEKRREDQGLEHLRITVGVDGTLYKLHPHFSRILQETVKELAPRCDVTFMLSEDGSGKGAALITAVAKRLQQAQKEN
# [15] = biological target: ATP-dependent molecular chaperone HSP82 (Candida albicans (strain WO-1) (Yeast), UniProt C4YTQ8); test: steroid-induced GRE reporter decrease in yeast – S. cerevisiae, luminescence, Hsp90 inhibitor project, dose response (AID 2400); format: functional, cell-based;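 note: beta-galactosidase luminescence from glucocorticoid response element reporter as proxy for Hsp90 function; inhibitor potency where signal loss means Hsp90 inhibition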
# [16] = biological target: T5, Hepatocyte nuclear factor 4-alpha (Homo sapiens, UniProt P41235); format: functional, cell-based;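 note: biochemical luminescence-based dose-response counterscreen measuring inhibition of HNF4 dimerization, run alongside a screen for blockers of ABHD5–perilipin-5 interaction; split luciferase complementation of HNF4 fusion proteins in cell lysate measuring dimerization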
# T5 sequence (P41235 whole entry): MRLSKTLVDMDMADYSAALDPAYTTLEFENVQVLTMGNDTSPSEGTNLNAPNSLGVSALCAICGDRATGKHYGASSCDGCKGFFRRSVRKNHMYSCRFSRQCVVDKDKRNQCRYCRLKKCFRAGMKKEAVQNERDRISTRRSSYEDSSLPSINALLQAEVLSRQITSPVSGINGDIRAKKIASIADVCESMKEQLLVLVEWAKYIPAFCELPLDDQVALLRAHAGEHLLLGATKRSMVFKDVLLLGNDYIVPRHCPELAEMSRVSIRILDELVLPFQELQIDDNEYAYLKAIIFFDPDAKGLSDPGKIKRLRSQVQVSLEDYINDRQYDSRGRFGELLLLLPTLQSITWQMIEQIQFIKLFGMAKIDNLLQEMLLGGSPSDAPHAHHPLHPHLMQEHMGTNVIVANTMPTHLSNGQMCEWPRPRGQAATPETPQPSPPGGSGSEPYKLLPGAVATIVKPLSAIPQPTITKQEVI
# [17] = biological target: T6, Ubiquitin-conjugating enzyme E2 N (Homo sapiens, UniProt P61088); format: functional
# T6 sequence (P61088 whole entry): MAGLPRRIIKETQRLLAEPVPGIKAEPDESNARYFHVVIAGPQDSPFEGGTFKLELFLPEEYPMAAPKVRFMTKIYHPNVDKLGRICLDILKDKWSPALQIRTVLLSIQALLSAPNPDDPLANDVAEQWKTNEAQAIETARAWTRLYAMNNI
# [18] = biological target: Cytochrome P450 2C9 (Homo sapiens, UniProt P11712)
# [19] = biological target: T7, CAAX prenyl protease 2 (Saccharomyces cerevisiae S288c, UniProt Q03530); format: biochemical
# T7 sequence (Q03530 whole entry): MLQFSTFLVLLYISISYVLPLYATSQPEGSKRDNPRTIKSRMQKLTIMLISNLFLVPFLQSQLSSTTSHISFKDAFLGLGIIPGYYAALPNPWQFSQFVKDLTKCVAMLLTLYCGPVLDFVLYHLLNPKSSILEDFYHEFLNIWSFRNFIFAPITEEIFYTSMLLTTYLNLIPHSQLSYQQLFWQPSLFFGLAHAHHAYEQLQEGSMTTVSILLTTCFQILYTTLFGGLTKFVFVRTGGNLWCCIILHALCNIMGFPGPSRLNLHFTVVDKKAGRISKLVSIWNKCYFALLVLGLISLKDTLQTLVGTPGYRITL
# [20] = biological target: T8, Bcl-2-related protein A1 (Mus musculus, UniProt Q07440); format: functional;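 note: confirmatory dose–response counterscreen on Bfl-1, used to check hits from a UBC13 polyubiquitin inhibitor campaign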
# T8 sequence (Q07440 whole entry): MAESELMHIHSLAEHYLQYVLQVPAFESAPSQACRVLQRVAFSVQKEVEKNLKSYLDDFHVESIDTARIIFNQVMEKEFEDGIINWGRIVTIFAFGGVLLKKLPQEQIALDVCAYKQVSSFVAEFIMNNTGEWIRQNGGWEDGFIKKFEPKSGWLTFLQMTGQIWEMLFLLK
# [21] = biological target: T6, Ubiquitin-conjugating enzyme E2 N; format: functional; remark: listed apart in the source
# [22] = biological target: Serine/threonine-protein kinase TAO1 (Homo sapiens, UniProt Q7L7X3); format: functional
# [23] = rise of 4N DNA cells, HeLa – IC50, dose response (AID 1117351); format: functional, cell-based
# [24] = biological target: Serine/threonine-protein kinase D2 (Homo sapiens, UniProt Q9BZL6); format: functional;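 note: measured against PRKD2 as one member of a kinome-wide kinase profiling panel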
# [25] = rise of 2N DNA cells, HeLa – IC50, dose response (AID 1117349); format: functional, cell-based
# Chain of Melanocortin receptor 4 (P32245 whole entry): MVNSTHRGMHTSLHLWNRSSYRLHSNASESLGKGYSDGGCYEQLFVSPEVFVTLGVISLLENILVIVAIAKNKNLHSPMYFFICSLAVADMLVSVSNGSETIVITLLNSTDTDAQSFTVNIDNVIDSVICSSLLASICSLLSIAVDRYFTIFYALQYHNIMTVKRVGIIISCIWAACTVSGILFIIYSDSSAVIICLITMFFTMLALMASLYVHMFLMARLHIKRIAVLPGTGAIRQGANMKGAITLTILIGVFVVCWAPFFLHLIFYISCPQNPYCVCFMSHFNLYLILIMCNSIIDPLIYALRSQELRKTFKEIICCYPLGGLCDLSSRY
# Chain of Multidrug resistance protein CDR1 (P43071 whole entry, looked up): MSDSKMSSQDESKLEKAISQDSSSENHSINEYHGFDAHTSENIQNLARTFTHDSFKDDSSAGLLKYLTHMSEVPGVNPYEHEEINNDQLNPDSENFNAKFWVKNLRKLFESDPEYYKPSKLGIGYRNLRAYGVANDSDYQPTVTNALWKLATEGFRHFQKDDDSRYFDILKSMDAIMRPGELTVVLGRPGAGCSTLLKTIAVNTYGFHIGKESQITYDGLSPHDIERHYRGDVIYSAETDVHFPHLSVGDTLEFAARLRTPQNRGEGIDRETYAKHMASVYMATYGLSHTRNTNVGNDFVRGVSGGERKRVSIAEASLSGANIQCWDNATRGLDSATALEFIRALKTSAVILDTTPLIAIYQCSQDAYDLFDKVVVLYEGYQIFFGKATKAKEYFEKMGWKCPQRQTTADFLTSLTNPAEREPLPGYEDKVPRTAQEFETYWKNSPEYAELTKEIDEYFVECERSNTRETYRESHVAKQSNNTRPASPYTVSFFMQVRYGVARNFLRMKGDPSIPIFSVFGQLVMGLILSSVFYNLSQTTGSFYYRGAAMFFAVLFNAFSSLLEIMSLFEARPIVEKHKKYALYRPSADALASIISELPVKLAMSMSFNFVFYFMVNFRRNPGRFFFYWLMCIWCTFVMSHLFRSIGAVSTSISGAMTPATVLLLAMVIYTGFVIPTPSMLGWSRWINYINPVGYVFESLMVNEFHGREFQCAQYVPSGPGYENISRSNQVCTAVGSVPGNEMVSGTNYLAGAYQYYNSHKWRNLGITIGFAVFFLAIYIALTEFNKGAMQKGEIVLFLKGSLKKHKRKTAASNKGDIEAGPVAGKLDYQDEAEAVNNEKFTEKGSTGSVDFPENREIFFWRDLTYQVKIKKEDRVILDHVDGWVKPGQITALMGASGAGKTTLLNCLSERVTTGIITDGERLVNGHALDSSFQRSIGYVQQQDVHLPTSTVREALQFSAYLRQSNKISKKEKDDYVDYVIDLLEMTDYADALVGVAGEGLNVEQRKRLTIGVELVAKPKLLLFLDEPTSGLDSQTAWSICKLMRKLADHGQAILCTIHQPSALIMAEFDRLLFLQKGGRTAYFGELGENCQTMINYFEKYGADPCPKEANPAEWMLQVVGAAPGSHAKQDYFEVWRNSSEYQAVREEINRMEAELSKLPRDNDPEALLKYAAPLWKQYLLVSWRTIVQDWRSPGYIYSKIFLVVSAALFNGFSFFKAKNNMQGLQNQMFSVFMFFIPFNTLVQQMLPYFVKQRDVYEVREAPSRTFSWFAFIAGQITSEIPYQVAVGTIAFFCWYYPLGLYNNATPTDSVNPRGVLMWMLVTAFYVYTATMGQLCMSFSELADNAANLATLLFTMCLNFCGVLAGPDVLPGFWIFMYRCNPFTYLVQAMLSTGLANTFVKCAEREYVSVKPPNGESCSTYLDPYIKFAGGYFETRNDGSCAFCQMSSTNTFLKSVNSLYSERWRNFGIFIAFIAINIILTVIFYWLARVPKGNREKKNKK
# Chain of Cytochrome P450 2C9 (P11712 whole entry): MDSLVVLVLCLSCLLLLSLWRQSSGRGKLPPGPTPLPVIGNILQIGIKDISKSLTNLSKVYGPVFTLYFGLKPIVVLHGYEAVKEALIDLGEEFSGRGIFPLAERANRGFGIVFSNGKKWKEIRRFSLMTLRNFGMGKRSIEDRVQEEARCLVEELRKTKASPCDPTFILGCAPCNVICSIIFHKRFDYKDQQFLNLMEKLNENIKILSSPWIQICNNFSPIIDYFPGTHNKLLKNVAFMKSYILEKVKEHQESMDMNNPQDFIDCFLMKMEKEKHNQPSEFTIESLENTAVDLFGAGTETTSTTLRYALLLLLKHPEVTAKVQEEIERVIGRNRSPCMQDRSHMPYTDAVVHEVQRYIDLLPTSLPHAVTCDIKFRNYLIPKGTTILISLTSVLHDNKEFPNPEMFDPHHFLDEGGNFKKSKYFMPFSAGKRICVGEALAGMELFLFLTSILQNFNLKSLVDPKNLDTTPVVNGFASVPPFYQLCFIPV
# Chain of Paired box protein Pax-8 (Q06710 whole entry): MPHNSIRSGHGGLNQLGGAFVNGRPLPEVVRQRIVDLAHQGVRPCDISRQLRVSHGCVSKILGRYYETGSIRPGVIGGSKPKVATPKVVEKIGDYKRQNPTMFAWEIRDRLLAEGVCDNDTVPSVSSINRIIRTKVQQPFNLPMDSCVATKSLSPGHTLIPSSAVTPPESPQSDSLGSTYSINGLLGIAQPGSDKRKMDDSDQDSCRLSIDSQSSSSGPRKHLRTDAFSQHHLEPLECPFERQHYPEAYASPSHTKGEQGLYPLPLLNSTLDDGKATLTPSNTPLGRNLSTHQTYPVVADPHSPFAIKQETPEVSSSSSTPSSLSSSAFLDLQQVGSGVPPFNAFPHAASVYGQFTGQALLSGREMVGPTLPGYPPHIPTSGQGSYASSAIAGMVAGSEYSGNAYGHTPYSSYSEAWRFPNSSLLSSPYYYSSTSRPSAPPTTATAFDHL
# Chain of Serine/threonine-protein kinase D2 (Q9BZL6 whole entry): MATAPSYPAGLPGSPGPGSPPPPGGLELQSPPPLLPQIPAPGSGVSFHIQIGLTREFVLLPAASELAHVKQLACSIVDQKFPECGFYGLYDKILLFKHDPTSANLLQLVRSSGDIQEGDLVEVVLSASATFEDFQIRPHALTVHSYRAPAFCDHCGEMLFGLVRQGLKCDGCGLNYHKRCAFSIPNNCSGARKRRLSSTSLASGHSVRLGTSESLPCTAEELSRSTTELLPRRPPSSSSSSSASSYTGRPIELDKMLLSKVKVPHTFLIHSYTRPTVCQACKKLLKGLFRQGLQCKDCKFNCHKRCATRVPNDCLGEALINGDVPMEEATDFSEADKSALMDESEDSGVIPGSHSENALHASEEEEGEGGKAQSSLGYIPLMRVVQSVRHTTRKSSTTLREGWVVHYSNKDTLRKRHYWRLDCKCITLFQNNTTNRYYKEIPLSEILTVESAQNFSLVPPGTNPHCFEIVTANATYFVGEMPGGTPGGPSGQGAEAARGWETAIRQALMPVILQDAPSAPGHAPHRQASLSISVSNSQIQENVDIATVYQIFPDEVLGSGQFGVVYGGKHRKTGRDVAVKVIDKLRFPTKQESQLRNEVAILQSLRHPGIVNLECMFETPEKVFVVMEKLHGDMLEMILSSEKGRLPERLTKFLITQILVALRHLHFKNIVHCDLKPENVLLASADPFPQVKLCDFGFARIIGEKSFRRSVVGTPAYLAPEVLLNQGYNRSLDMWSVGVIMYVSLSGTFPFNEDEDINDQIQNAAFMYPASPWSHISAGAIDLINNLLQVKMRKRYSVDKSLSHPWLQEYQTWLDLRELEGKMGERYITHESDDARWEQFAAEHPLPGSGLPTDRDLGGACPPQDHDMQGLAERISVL
# Chain of ATP-dependent molecular chaperone HSP82 (C4YTQ8 whole entry, the tested form may be a part): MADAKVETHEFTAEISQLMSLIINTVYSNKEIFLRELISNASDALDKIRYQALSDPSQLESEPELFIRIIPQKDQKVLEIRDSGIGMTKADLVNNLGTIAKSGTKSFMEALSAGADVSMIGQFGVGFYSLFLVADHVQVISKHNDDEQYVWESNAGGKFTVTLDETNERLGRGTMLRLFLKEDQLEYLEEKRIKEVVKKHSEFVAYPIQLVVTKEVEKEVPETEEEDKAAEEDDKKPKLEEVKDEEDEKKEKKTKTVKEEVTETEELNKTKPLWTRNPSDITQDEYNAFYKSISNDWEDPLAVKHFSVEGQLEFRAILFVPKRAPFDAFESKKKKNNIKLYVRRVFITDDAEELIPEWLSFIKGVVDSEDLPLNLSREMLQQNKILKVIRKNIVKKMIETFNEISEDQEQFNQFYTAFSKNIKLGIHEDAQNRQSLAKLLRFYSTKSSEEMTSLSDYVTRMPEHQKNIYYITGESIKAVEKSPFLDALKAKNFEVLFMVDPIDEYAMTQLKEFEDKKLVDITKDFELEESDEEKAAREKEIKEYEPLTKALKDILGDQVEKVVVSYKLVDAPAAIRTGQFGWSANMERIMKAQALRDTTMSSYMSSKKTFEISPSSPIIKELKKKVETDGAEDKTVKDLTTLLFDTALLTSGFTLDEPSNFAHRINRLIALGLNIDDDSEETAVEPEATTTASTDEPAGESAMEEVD
# Chain of Protein disulfide-isomerase (P07237 whole entry): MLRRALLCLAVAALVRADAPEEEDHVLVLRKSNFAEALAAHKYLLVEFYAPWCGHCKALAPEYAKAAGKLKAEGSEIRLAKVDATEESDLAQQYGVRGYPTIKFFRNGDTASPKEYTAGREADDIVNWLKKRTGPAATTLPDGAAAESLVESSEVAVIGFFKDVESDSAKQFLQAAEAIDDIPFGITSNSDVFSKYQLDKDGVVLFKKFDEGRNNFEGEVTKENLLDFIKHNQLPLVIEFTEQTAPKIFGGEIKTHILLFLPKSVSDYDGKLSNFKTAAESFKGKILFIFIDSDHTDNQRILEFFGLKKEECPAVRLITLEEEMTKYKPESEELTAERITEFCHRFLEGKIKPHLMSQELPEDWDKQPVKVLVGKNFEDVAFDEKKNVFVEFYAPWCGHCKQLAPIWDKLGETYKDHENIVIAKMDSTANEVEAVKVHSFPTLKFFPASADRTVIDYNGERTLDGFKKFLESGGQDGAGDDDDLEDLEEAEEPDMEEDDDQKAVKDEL
smiles,measurement,setting,value
CCc1ccc(-c2nc(C[S+]([O-])CC(=O)O)c(C)o2)cc1 (stereo not given),EC50,[1],> 55.9 µM (inactive)
same,EC50,[2],> 54.7 µM (inactive)
same,EC50,[3],> 54.7 µM (inactive)
same,IC50,[4],> 89.2 µM (inactive)
CCOc1ccc(NC(=O)CSc2nnc(Cc3cccn3C)n2-c2ccc(F)cc2)cc1,EC50,[5],0.013 µM (active)
CCc1cc2ccc(OC)cc2nc1SCC(=O)N1CCN(C(=O)c2ccco2)CC1,IC50,[6],> 64.6 µM (inactive)
same,IC50,[7],> 64.6 µM (inactive)
Cc1cccc(N2CCN(C(S)=Nc3ccc4nc(N5CCN(C)CC5)cc(C)c4c3)CC2C)c1 (stereo not given),EC50,[1],> 54.7 µM (inactive)
same,EC50,[2],> 54.7 µM (inactive)
same,EC50,[3],> 54.7 µM (inactive)
same,AC50,[8],7.58 µM (active)
same,IC50,[4],8.41 µM (active)
C[C@@H]1O[C@@H](OC[C@@H]2O[C@H](Oc3c(-c4ccc(O)cc4)oc4cc(O)cc(O)c4c3=O)[C@@H](O)[C@H](O)[C@H]2O)[C@H](O)[C@H](O)[C@H]1O,AC50,[9],3.51 µM (active)
same,AC50,[10],6.66 µM (active)
[H]/N=C(\N/C(=N/[H])NCCCCCCNC(=N)NC(=N)Nc1ccc(Cl)cc1)Nc1ccc(Cl)cc1 [CHLORHEXIDINE],IC50,[6],2 µM (active)
same,AC50,[11],5.69 µM (active)
same,AC50,[12],15.8 µM (inconclusive)
same,AC50,[13],1.7 µM (active)
same,IC50,[14],8.99 µM (active)
same,EC50,[15],> 150 µM (inactive)
same,IC50,[16],23.5 µM (inactive)
same,IC50,[17],2.2 µM (active)
same,AC50,[18],15.8 µM (inconclusive)
same,AC50,[19],5.69 µM (active)
same,IC50,[20],> 20 µM (inactive)
same,IC50,[21],3.01 µM (active)
Clc1ccc(Nc2nnc(Cc3ccncc3)c3ccccc23)cc1 [VATALANIB],Ki,[22],> 7.94 µM (inactive)
same,IC50,[23],> 10 µM (inactive)
same,Ki,[24],> 10 µM (inactive)
same,IC50,[25],> 10 µM (inactive)

# — ChEMBL document CHEMBL1201862, “PubChem BioAssay data set” (2004)
